Molecules are shown by their SMILES.

Common to all, as to format: biochemical
Assay [1] addresses KAT8 Full length enzyme (Homo sapiens (Human), UniProt Q9H7Z6). Description: KAT8 assay (SAMDI-MS acetylation of H3 1-21 peptide). The following applies: Morrison equation fit; replicate number in parentheses; read-out: KAT8 Ki (nM) (replicate number).
In assay [2] the target is KAT7+JADE1+EAF6+ING5 4 protein complex (Homo sapiens (Human), UniProt O95251). The assay is described as follows: KAT7 JADE1 assay (SAMDI-MS acetylation of H3 1-21 peptide). The following applies: Morrison equation fit; replicate number in parentheses; read-out: KAT7 JADE1 Ki (nM) (replicate number).
Assay [3] concerns the target KAT5 Full length enzyme (Homo sapiens (Human), UniProt Q92993). Description: KAT5 assay (SAMDI-MS acetylation of H4 1-21 peptide). The following applies: Morrison equation fit; replicate number in parentheses; read-out: KAT5 Ki (nM) (replicate number).
Assay [4] addresses KAT6A Full length enzyme (Homo sapiens (Human), UniProt Q92794). The assay is described as follows: KAT6A assay (SAMDI-MS acetylation of H3 1-21 peptide). The following applies: Morrison equation fit; replicate number in parentheses; read-out: KAT6A Ki (nM) (replicate number).

Sequence of KAT8 Full length enzyme (Q9H7Z6 whole entry): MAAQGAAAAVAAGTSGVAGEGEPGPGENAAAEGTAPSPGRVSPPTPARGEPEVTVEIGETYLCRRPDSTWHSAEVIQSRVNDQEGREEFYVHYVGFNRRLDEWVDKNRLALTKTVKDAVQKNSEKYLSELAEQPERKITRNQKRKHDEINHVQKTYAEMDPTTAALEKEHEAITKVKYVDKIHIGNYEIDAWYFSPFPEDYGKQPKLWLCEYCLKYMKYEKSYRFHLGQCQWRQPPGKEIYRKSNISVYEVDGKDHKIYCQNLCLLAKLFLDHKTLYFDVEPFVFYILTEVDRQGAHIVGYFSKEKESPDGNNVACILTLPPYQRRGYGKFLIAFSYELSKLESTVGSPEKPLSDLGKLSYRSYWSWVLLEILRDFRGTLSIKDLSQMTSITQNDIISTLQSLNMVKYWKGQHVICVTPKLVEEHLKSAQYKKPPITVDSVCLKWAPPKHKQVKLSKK
Sequence of KAT6A Full length enzyme (Q92794 other isoform, or with tags, fused parts or gaps): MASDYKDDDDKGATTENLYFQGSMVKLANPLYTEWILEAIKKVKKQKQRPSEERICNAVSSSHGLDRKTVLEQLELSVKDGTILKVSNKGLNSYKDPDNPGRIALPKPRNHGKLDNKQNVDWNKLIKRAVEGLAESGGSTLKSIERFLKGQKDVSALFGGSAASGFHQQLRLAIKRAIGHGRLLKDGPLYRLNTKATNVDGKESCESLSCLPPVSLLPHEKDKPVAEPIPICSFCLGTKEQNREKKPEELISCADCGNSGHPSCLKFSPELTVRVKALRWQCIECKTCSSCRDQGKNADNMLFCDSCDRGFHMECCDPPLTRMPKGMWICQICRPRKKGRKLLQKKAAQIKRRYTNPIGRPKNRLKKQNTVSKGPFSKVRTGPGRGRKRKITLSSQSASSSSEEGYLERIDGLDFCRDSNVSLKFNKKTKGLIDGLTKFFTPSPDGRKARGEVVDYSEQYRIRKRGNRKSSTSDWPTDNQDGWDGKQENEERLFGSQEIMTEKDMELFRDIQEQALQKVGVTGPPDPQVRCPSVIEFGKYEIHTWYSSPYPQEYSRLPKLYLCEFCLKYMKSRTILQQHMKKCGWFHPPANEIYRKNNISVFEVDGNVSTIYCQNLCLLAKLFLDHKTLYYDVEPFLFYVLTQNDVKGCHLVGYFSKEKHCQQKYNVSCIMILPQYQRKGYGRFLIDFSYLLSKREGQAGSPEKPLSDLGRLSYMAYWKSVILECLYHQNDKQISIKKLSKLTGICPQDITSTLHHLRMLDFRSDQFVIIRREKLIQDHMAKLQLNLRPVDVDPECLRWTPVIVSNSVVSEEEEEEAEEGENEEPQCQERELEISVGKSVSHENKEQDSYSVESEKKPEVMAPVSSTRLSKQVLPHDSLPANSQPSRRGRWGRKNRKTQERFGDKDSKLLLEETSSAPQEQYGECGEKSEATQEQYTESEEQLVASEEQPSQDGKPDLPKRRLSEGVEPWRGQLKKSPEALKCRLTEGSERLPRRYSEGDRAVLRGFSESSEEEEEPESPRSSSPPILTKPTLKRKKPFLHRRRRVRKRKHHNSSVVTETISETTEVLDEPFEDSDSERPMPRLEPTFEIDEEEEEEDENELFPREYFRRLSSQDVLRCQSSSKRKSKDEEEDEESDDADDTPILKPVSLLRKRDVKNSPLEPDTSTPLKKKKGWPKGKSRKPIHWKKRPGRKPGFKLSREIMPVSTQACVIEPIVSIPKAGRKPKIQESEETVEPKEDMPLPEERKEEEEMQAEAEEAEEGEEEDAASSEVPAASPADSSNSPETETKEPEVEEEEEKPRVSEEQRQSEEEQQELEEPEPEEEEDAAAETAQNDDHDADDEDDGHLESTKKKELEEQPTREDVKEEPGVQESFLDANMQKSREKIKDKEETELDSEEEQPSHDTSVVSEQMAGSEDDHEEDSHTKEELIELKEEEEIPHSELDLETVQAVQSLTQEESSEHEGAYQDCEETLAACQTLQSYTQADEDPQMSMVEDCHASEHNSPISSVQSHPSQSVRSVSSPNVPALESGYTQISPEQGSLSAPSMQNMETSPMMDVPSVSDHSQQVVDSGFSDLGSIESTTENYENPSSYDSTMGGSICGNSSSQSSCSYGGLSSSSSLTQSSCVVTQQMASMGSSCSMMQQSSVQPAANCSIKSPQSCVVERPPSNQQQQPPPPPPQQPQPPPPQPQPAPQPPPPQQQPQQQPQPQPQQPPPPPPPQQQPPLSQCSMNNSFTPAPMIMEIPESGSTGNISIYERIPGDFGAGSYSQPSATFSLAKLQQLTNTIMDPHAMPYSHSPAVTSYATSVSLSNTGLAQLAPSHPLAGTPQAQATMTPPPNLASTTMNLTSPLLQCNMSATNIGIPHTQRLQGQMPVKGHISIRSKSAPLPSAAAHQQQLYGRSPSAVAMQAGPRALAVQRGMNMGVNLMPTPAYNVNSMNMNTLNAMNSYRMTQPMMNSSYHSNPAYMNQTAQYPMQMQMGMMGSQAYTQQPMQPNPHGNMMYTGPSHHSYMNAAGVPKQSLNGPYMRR
Sequence of KAT5 Full length enzyme (Q92993 whole entry): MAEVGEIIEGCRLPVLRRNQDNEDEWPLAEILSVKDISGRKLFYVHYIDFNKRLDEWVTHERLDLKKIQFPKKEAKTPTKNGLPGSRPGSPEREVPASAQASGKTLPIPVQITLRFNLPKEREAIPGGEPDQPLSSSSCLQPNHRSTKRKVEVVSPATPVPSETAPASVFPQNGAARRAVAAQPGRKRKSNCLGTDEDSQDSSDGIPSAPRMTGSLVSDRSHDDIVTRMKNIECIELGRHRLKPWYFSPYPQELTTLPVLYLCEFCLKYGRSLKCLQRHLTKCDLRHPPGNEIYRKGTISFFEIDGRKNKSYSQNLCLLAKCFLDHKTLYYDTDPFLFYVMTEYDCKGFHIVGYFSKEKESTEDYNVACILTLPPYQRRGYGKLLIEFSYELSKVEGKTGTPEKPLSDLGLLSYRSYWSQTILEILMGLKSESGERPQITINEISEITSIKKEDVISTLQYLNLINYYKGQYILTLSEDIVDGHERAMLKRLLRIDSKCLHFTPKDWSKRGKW

One may read the Ki as a measure of affinity in units of concentration, obtained from inhibition or displacement. For the molecule `COc1cc2c(NS(=O)(=O)c3c(OC)cccc3OC)noc2cc1Nc1cc(C(C)CCO)[nH]n1` (centres unmarked) [Example 88, N-(6-{[5-(4-hydroxybutan-2-yl)-1H-pyrazol-3-yl]amino}-5-methoxy-1,2-benzoxazol-3-yl)-2,6-dimethoxybenzene-1-sulfonamide], the Ki in assay [1] is over 13000 nM; in assay [2] it was 378 nM; in assay [3] it was 6020 nM; in assay [4], 27 nM.
The like results for `COc1cc2c(NS(=O)(=O)c3c(OC)cccc3OC)noc2cc1Nc1cc(Cl)n[nH]1` [Example 92, N-{6-[(3-chloro-1H-pyrazol-5-yl)amino]-5-methoxy-1,2-benzoxazol-3-yl}-2,6-dimethoxybenzene-1-sulfonamide] were, in that order, 2100 nM, 219 nM, 867 nM and 1.3 nM.
Taken in the same sequence, the figures for `COc1cc2c(NS(=O)(=O)c3c(OC)cccc3OC)noc2cc1Nc1cc(C2(C)CC2)n[nH]1` [Example 94, 2,6-dimethoxy-N-(5-methoxy-6-{[3-(1-methylcyclopropyl)-1H-pyrazol-5-yl]amino}-1,2-benzoxazol-3-yl)benzene-1-sulfonamide] were 5740 nM, 58.1 nM, 193 nM and 6.3 nM.
The like results for `COc1cc2c(NS(=O)(=O)c3cc4ccccc4cc3OC)noc2cc1Nc1cc(C2CC2)n[nH]1` [Example 95, N-{6-[(3-cyclopropyl-1H-pyrazol-5-yl)amino]-5-methoxy-1,2-benzoxazol-3-yl}-3-methoxynaphthalene-2-sulfonamide] were, in that order, 77 nM, 0.3 nM, 18.1 nM and 0.1 nM.
Consider `COc1cc(F)ccc1S(=O)(=O)Nc1noc2cc(Nc3cc(C4CC4)n[nH]3)c(F)c(OC)c12` [Example 97, N-{6-[(3-cyclopropyl-1H-pyrazol-5-yl)amino]-5-fluoro-4-methoxy-1,2-benzoxazol-3-yl}-4-fluoro-2-methoxybenzene-1-sulfonamide], for which the Ki was over 13000 nM in assay [1], 57.7 nM in assay [2], 795 nM in assay [3] and 9.8 nM in assay [4].
Taken in the same sequence, the figures for `COc1cccc(OC2CCC2)c1S(=O)(=O)Nc1noc2cc(Nc3cc(C4CC4)n[nH]3)c(F)c(OC)c12` [Example 98, 2-(cyclobutyloxy)-N-{6-[(3-cyclopropyl-1H-pyrazol-5-yl)amino]-5-fluoro-4-methoxy-1,2-benzoxazol-3-yl}-6-methoxybenzene-1-sulfonamide] were over 13000 nM, 74.6 nM, 3790 nM and 5.7 nM.
Taken in the same sequence, the figures for `COc1cc(F)c(F)cc1S(=O)(=O)Nc1noc2cc(Nc3cc(C4CC4)n[nH]3)c(F)c(OC)c12` [Example 100, N-{6-[(3-cyclopropyl-1H-pyrazol-5-yl)amino]-5-fluoro-4-methoxy-1,2-benzoxazol-3-yl}-4,5-difluoro-2-methoxybenzene-1-sulfonamide] were over 13000 nM, 86.6 nM, 1060 nM and 21.4 nM.
In the case of `CCOc1cc(C(F)F)ccc1S(=O)(=O)Nc1noc2cc(Nc3cc(C4CC4)n[nH]3)c(F)c(OC)c12` [Example 101, N-{6-[(3-cyclopropyl-1H-pyrazol-5-yl)amino]-5-fluoro-4-methoxy-1,2-benzoxazol-3-yl}-4-(difluoromethyl)-2-ethoxybenzene-1-sulfonamide], the Ki in assay [1] stood at 10300 nM; in assay [2], 50.7 nM; in assay [3], 1230 nM; in assay [4] it was 5.3 nM.
Take `COc1cc2c(NS(=O)(=O)c3c(OC)cccc3OC)noc2cc1Nc1ncccn1` [Example 102, 2,6-dimethoxy-N-{5-methoxy-6-[(pyrimidin-2-yl)amino]-1,2-benzoxazol-3-yl}benzene-1-sulfonamide]: the inhibition constant (Ki) is over 19500 nM in assay [1], 1440 nM in assay [2], 5970 nM in assay [3] and 1.9 nM in assay [4].
The like results for `COc1cc2c(NS(=O)(=O)c3c(OC)cccc3OC)noc2cc1Nc1cc(C2CC2)n(C)n1` [Example 103, N-{6-[(5-cyclopropyl-1-methyl-1H-pyrazol-3-yl)amino]-5-methoxy-1,2-benzoxazol-3-yl}-2,6-dimethoxybenzene-1-sulfonamide] were, in that order, 6010 nM, 47.4 nM, 254 nM and 2.8 nM.
Take `COc1cc2c(NS(=O)(=O)c3c(OC)cccc3OC)noc2cc1Nc1cc(OC)n(C)n1` [Example 104, 2,6-dimethoxy-N-{5-methoxy-6-[(5-methoxy-1-methyl-1H-pyrazol-3-yl)amino]-1,2-benzoxazol-3-yl}benzene-1-sulfonamide]: the Ki in assay [1] is over 10900 nM; in assay [2], 139 nM; in assay [3] it was 1040 nM; in assay [4], 5.6 nM.
As for `COc1cc2c(NS(=O)(=O)c3c(OC)cccc3OC)noc2cc1Nc1nccc(C)n1` [Example 105, 2,6-dimethoxy-N-{5-methoxy-6-[(4-methylpyrimidin-2-yl)amino]-1,2-benzoxazol-3-yl}benzene-1-sulfonamide], the Ki in assay [1] is over 12700 nM; in assay [2], 414 nM; in assay [3], 4120 nM; in assay [4] it was 9.7 nM.
Taken in the same sequence, the figures for `CCc1ccnc(Nc2cc3onc(NS(=O)(=O)c4c(OC)cccc4OC)c3cc2OC)n1` [Example 106, N-{6-[(4-ethylpyrimidin-2-yl)amino]-5-methoxy-1,2-benzoxazol-3-yl}-2,6-dimethoxybenzene-1-sulfonamide] were 6430 nM, 410 nM, 1990 nM and 11.7 nM.
For the molecule `CCc1cnc(Nc2cc3onc(NS(=O)(=O)c4c(OC)cccc4OC)c3cc2OC)nc1` [Example 107, N-{6-[(5-ethylpyrimidin-2-yl)amino]-5-methoxy-1,2-benzoxazol-3-yl}-2,6-dimethoxybenzene-1-sulfonamide], the Ki in assay [1] is over 13000 nM; in assay [2], 6540 nM; in assay [3] it was 10400 nM; in assay [4], 132 nM.
Taken in the same sequence, the figures for `COc1cc2c(NS(=O)(=O)c3c(OC)cccc3OC)noc2cc1Nc1nc(C)cc(C)n1` [Example 108, N-{6-[(4,6-dimethylpyrimidin-2-yl)amino]-5-methoxy-1,2-benzoxazol-3-yl}-2,6-dimethoxybenzene-1-sulfonamide] were over 13000 nM, 3420 nM, 45000 nM and 202 nM.
Taken in the same sequence, the figures for `COc1cc2c(NS(=O)(=O)c3c(OC)cccc3OC)noc2cc1Nc1ncc(C)cn1` [Example 110, 2,6-dimethoxy-N-{5-methoxy-6-[(5-methylpyrimidin-2-yl)amino]-1,2-benzoxazol-3-yl}benzene-1-sulfonamide] were over 13000 nM, 2820 nM, 6610 nM and 44.1 nM.
Taken in the same sequence, the figures for `COc1cc2c(NS(=O)(=O)c3c(OC)cccc3OC)noc2cc1Nc1ccccn1` [Example 111, 2,6-dimethoxy-N-{5-methoxy-6-[(pyridin-2-yl)amino]-1,2-benzoxazol-3-yl}benzene-1-sulfonamide] were over 13000 nM, 400 nM, 1130 nM and 0.8 nM.

Source of the values: patent US20250122183A1 (Pfizer Inc., priority 2023, published 2025).
